Laboratory results as given in paper PMC6804824, “Volatile composition and classification of Lilium flower aroma types and identification, polymorphisms, and alternative splicing of their monoterpene synthase genes” (Horticulture Research, 2019).
Changes are numbered by the printed parent chain.

Columns and labels:
Assay in all cases: GC-MS product analysis (SPME)
Type in all cases: biochemical
Settings in all cases: 30 uM GPP, 10 mM MgCl2, pH 7.2, 30 C, 3 h; products (E)-beta-ocimene, alpha-pinene, limonene; results call protein purified, methods use sonicated cells
LsoTPS-1 / LrlTPS-1 = molecular target: T1, LsoTPS-1 / LrlTPS-1 (Lilium hybrid cultivar, UniProt A0A6M2RDI7)
T1 construct: full length, 586 aa (ORF 1761 bp), plastid transit peptide intact; pTYB12 fusion vector; E. coli BL21(DE3); about 67 kDa
T1 sequence (A0A6M2RDI7 1-586): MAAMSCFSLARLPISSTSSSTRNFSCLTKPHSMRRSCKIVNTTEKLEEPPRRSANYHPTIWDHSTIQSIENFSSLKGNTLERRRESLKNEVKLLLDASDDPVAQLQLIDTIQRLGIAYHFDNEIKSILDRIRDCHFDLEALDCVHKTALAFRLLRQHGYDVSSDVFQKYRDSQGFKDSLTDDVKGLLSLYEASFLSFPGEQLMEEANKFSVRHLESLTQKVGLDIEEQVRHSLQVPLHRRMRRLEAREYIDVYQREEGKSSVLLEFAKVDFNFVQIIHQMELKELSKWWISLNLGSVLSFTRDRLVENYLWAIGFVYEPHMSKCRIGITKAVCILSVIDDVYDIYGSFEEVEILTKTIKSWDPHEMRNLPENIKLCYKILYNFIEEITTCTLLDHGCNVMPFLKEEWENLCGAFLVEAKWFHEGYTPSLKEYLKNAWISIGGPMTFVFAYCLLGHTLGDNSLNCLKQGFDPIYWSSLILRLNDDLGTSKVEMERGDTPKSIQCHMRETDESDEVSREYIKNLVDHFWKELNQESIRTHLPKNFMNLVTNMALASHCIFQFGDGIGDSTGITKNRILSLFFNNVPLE

LsoTPS-2 = molecular target: T2, LsoTPS-2 (Lilium hybrid cultivar, UniProt A0A2H4R3S6)
T2 construct: gene TPS; full length, 590 aa (ORF 1773 bp), plastid transit peptide intact; pTYB12 fusion vector; E. coli BL21(DE3); about 68 kDa
T2 sequence (A0A2H4R3S6 1-590): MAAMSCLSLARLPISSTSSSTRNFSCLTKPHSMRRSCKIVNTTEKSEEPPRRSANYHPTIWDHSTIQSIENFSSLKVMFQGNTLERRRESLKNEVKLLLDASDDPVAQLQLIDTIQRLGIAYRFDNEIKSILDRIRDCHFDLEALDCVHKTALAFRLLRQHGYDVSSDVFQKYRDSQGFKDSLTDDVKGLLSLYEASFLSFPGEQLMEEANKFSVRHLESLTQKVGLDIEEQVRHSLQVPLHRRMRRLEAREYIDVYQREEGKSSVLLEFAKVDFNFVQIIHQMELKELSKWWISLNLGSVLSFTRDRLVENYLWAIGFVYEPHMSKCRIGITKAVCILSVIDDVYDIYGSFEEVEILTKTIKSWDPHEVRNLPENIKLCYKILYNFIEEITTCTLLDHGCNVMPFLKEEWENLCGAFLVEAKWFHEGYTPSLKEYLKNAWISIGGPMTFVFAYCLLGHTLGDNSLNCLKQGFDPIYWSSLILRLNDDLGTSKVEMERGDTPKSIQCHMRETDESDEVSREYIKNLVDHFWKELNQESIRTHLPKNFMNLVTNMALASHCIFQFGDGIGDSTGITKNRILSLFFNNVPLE

LsoTPS-3 = molecular target: T3, LsoTPS-3 (Lilium hybrid cultivar, UniProt A0A6M2RCV8)
T3 construct: full length, 548 aa (ORF 1647 bp), plastid transit peptide intact; pTYB12 fusion vector; E. coli BL21(DE3); about 62 kDa
T3 sequence (A0A6M2RCV8 1-548): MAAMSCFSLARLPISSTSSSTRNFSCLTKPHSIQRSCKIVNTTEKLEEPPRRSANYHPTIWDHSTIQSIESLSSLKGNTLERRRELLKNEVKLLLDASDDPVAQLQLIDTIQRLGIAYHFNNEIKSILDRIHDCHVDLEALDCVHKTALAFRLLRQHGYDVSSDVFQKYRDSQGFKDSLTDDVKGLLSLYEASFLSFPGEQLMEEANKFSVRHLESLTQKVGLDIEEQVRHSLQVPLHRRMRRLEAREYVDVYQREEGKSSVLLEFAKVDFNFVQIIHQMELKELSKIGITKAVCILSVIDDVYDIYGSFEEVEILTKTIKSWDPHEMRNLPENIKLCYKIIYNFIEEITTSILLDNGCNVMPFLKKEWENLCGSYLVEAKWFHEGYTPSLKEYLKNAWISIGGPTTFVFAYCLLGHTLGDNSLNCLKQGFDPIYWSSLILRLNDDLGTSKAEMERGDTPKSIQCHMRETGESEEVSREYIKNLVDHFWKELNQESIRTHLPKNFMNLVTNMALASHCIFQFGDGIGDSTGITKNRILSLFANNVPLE

LrlTPS-3 = molecular target: T4, LrlTPS-3 (Lilium hybrid cultivar, UniProt A0A6M2RDN4)
T4 construct: full length, 548 aa (ORF 1647 bp), plastid transit peptide intact; pTYB12 fusion vector; E. coli BL21(DE3); about 62 kDa
T4 sequence (A0A6M2RDN4 1-548): T3 sequence (A0A6M2RCV8 1-548) with L80P, H231R

With `CC(C)=CCC/C(C)=C/COP(=O)(O)OP(=O)(O)O` [GPP] the “GC-MS product analysis (SPME)” value (LsoTPS-1 / LrlTPS-1) was “all five proteins were able to convert GPP into (E)-β-ocimene, α-pinene, and limonene”, the “GC-MS product analysis (SPME)” value (LsoTPS-2) was “all five proteins were able to convert GPP into (E)-β-ocimene, α-pinene, and limonene” and the “GC-MS product analysis (SPME)” value (LsoTPS-3) was “all five proteins were able to convert GPP into (E)-β-ocimene, α-pinene, and limonene”. For the same compound, the “GC-MS product analysis (SPME)” value (LrlTPS-3) was “all five proteins were able to convert GPP into (E)-β-ocimene, α-pinene, and limonene”.
